Data: PMC4785745, “Genome-wide analysis identifies gain and loss/change of function within the small multigenic insecticidal Albumin 1 family of Medicago truncatula” (BMC Plant Biology, 2016)
Bridge positions count the residues as written; N and C are the ends. Ends that are not written are not given here. Peptide text beside a SMILES is read from it.

Legend:
Sitophilus = assay type: in vivo; conditions: standard Sitophilus mortality assay [17]; data not shown
PA1b binding site = test: Ligand binding to the PA1b-binding site using 125I-PA1b; conditions: for binding to the PA1b-binding site (in words): 125I-PA1b ligand binding; for Ki: affinity to the PA1b binding site, ligand binding using 125I-PA1b, according to [12], '-' = no binding in the range assayed
Description: The affinity of synthetic peptides for the PA1b-binding site was determined by ligand binding using ^125I-toxin [12].

Sf9 cells = assay type: cell-based, Spodoptera frugiperda; conditions: for LC50: cultured Sf9 cells, 15 000 cells/well, 24 h exposure, 27 °C, CellTiter-Blue, according to Rahioui et al. [32], '-' = no toxicity in the range assayed
Description: Sf9 cells lines were grown at 27 °C in Lonza’s culture medium, supplemented with 5 % fetal bovine serum (FBS) and 0.1 % gentamicin. Sf9 cells were seeded, in 96-well plates, 24 h prior to the experiments (15 000 cells/well) and were exposed to increasing concentrations of synthetic peptide. After this 24 h period, cell viability was determined using the CellTiter-Blue Viability Assay (Promega), according to the manufacturer’s instructions. After addition of the dye, the cells were incubated at 27 °C for 4 h. The absorbance, at 570 and 600 nm, was then measured using a microplate reader (MR 7000, Dynatech Laboratories Inc., USA).

[1] = system: Sf9 cell ramp membrane current; test: Whole-cell patch-clamp: blockage of Sf9 cell ramp membrane current; assay type: cell-based, Spodoptera frugiperda; conditions: Sf9 cells; for EC50: whole-cell patch clamp, voltage ramps 1.5 s from −100 to 90 mV, measured at +50 mV, Hill fit with 100 % blockage as fixed maximum, mean ± S.E., n = 9 (AG41), n = 8 (PA1b), SEM, read-out: EC50, inhibition of ramp membrane current
Description: We further investigated the AG41’s biological activity by performing an electrophysiological experiment on cultured Sf9 cells to check whether its cell-membrane ion transport alteration differed from that of PA1b, the model pea peptide. […] At 35 nM, AG41 decreased by approximately 35 % the ramp current amplitude measured at +50 mV (from 68 pA to 44 pA), while a similar concentration of 37.5 nM PA1b had no effect (trace from AG41 even differed from control at 3.5 nM).
Current recordings were made at room temperature, under voltage clamp using the whole-cell configuration of the patch-clamp technique. Command voltage and data acquisition were performed with pClamp software (Axon Instruments, Foster city, CA, USA). The holding potential was −80 mV. Membrane currents were evoked, every 10 s, by voltage ramps of 1.5 s in duration applied from −100 to 90 mV, filtered at 300 Hz and sampled at 1 kHz with an analogue-to-digital converter (Labmaster TM 40, Scientific Solutions Inc., Solon OH, USA). The external solution contained (in mM): 135 NaCl, 4 KCl, 2 MgCl2, 10 CaCl2 and 10 Mes, adjusted to pH 6.4 with NaOH. The internal solution contained (in mM): 140 K-aspartate, 1 MgCl2, 3 K2-ATP, 5 EGTA and 5 Hepes, adjusted to pH 7.2 with KOH. Salts were purchased from Sigma-Aldrich and peptides were prepared as 60 % (v/v) ethanol stock solution as previously described.
Biological results are expressed as the mean ± S.E.M., n indicating the number of Sf9 cells studied (electrophysiology). Statistical comparisons were made using a Mann–Whitney U or Wilcoxon tests at the 95 % confidence level.

CC[C@H](C)[C@@H]1NC(=O)CNC(=O)[C@H](CO)NC(=O)[C@@H](NC(=O)[C@H](CC(=O)O)NC(=O)[C@H](C)N)CSSC[C@@H]2NC(=O)[C@H](CC(=O)O)NC(=O)[C@H](CO)NC(=O)[C@H](CO)NC(=O)[C@H](CCCNC(=N)N)NC(=O)[C@@H]3CSSC[C@@H](C(=O)N[C@H](C(=O)N[C@@H](CC(N)=O)C(=O)N4CCC[C@H]4C(=O)N[C@H](C(=O)N[C@@H](CO)C(=O)O)[C@@H](C)CC)[C@@H](C)CC)NC(=O)[C@H](Cc4ccccc4)NC(=O)CNC(=O)CNC(=O)[C@H]([C@@H](C)CC)NC(=O)[C@H](CC(C)C)NC(=O)[C@H](C)NC(=O)[C@H]([C@@H](C)CC)NC(=O)[C@@H]4CCCN4C(=O)[C@H]([C@@H](C)CC)NC(=O)[C@H](CSSC[C@H](NC1=O)C(=O)N[C@@H](CO)C(=O)N1CCC[C@H]1C(=O)N[C@@H](Cc1ccccc1)C(=O)N[C@@H](CCC(=O)O)C(=O)N[C@@H](CCSC)C(=O)N1CCC[C@H]1C(=O)N1CCC[C@H]1C(=O)N3)NC(=O)[C@H](CCCNC(=N)N)NC2=O [AS37] (H-ADCSGICSPFEMPPCRSSDCRCIPIALIGGFCINPIS-OH; disulfide 3-20, 7-22, 15-32 (inferred); N-terminus and C-terminus assumed)
toxicity in Sitophilus mortality assay (in words) (Sitophilus): toxic | binding to the PA1b-binding site (in words) (PA1b binding site): revealed binding properties | Ki (PA1b binding site): 0.015 ± 0.002 µM | LC50 (Sf9 cells): 0.107 ± 0.0032 µM

CC[C@H](C)[C@@H]1NC(=O)[C@H](Cc2ccccc2)NC(=O)[C@@H]2CSSC[C@@H]3NC(=O)[C@H](C)NC(=O)[C@H](CCC(=O)O)NC(=O)CNC(=O)[C@@H](NC(=O)[C@H](CCCCN)NC(=O)[C@H](C)N)CSSC[C@H](NC(=O)CNC(=O)[C@H](CC(=O)O)NC(=O)CNC(=O)[C@H](C)NC(=O)[C@H](CC(N)=O)NC(=O)[C@H](CSSC[C@@H](C(=O)N[C@@H](C)C(=O)N[C@@H](CCC(N)=O)C(=O)N[C@@H](CC(C)C)C(=O)N[C@@H](CO)C(=O)N[C@H](C(=O)O)[C@@H](C)O)NC(=O)[C@H](Cc4ccccc4)NC(=O)CNC(=O)[C@@H]4CCCN4C(=O)[C@H](CC(C)C)NC(=O)[C@H]([C@@H](C)O)NC(=O)[C@H](CC(C)C)NC(=O)[C@H](Cc4ccc(O)cc4)NC(=O)[C@H](C)NC(=O)[C@H](CC(=O)O)NC(=O)[C@H]([C@@H](C)O)NC1=O)NC(=O)[C@H](Cc1ccccc1)NC(=O)[C@H](CC(N)=O)NC(=O)[C@H](Cc1ccccc1)NC(=O)[C@H](CCC(N)=O)NC(=O)[C@H]([C@@H](C)O)NC(=O)[C@H](CC(=O)O)NC3=O)C(=O)N[C@@H](CCCNC(=N)N)C(=O)N2 [AS40] (H-AKCGEACDTQFNFCNAGDGCRCFITDAYLTLPGFCAQLST-OH; disulfide 3-20, 7-22, 14-35 (inferred); N-terminus and C-terminus assumed)
binding to the PA1b-binding site (in words) (PA1b binding site): revealed binding properties | Ki (PA1b binding site): 0.0103 ± 0.002 µM | LC50 (Sf9 cells): 0.047 ± 0.0022 µM

CC[C@H](C)[C@@H]1NC(=O)[C@H](C(C)C)NC(=O)[C@H](CC(C)C)NC(=O)CNC(=O)[C@H](C(C)C)NC(=O)[C@@H]2CCCN2C(=O)[C@H]([C@@H](C)CC)NC(=O)[C@@H]2CSSC[C@@H]3NC(=O)[C@H](C(C)C)NC(=O)CNC(=O)[C@H](CC(N)=O)NC(=O)[C@@H](NC(=O)[C@H](CO)NC(=O)[C@H](C)N)CSSC[C@H](NC(=O)[C@H](C)NC(=O)[C@H](CO)NC(=O)[C@H]([C@@H](C)O)NC(=O)CNC(=O)[C@H](CSSC[C@@H](C(=O)N[C@@H](CCCNC(=N)N)C(=O)N[C@@H](CC(N)=O)C(=O)N4CCC[C@H]4C(=O)N[C@@H](CO)C(=O)NCC(=O)O)NC(=O)[C@H](Cc4ccc(O)cc4)NC(=O)CNC1=O)NC(=O)[C@@H]1CCCN1C(=O)[C@@H]1CCCN1C(=O)[C@H](CCSC)NC(=O)[C@H](CCC(=O)O)NC(=O)[C@H](Cc1ccccc1)NC(=O)[C@@H]1CCCN1C(=O)[C@H](CO)NC3=O)C(=O)N[C@@H](CCCNC(=N)N)C(=O)N2 [PA1b, reference compound] (H-ASCNGVCSPFEMPPCGTSACRCIPVGLVIGYCRNPSG-OH; disulfide 3-20, 7-22, 15-32; N-terminus and C-terminus assumed)
effect on ramp membrane current (in words) ([1]; 37.5 nM peptide): no effect | EC50 [1]: 0.415 ± 0.0756 µM | Ki (PA1b binding site): 0.017 ± 0.0011 µM | LC50 (Sf9 cells): 0.0798 ± 0.0036 µM

ASCPNVGAVCSPFETKPCGNVKDCRCLPWGLFFGTCINPTG (disulfide 3-24, 10-26, 18-36 (inferred)) [AG41]
toxicity in Sitophilus mortality assay (in words) (Sitophilus): highly toxic | decrease of ramp current amplitude measured at +50 mV ([1]; 35 nM peptide): approximately 35% | ramp current amplitude measured at +50 mV ([1]; 35 nM peptide (control 68 pA)): 44 pA | EC50 [1]: 0.0146 ± 0.0004 µM | binding to the PA1b-binding site (in words) (PA1b binding site): revealed binding properties | Ki (PA1b binding site): 0.0013 ± 0.0006 µM | toxicity relative to the original pea albumin 1b (Sf9 cells; compared with PA1b, Table 1): almost ten times superior | LC50 (Sf9 cells): 0.00544 ± 0.0017 µM

DEC-W-G-PCSVLQTPP-CPLSK CYCIPLFLVVGY---CSHASS (bicyclic or more) [DS37, synthetic folded Medicago truncatula A1b peptide, cluster 1, non-canonical CYC motif]
toxicity in Sitophilus mortality assay (in words) (Sitophilus): not toxic | binding to the PA1b-binding site (in words) (PA1b binding site): did not present binding | LC50 (Sf9 cells): - ((−) scores a negative result (no toxicity nor binding in the toxin range assayed))

EFCSSVGSFCSPFNTNPCGYLGNCRCVPYYLYGGTCENPFG (disulfide 3-24, 10-26, 18-36 (inferred)) [EG41]
binding to the PA1b-binding site (in words) (PA1b binding site): revealed binding properties | Ki (PA1b binding site): 0.0728 ± 0.0027 µM | LC50 (Sf9 cells): 0.075 ± 0.0031 µM

GQCARVGMRCSRALPNPCGDIVTCRCVHLHLVGSTCIDYTGDGL (disulfide 3-24, 10-26, 18-36) [GL44]
binding to the PA1b-binding site (in words) (PA1b binding site): did not present binding | Ki (PA1b binding site): > 0.694 µM | LC50 (Sf9 cells): - ((−) scores a negative result (no toxicity nor binding in the toxin range assayed))
